From ChEMBL document CHEMBL1145159 (J Med Chem, 2005)
Several values for one entry are separate records, joined by “and”; a condition that tells them apart may be missing. Identical values can stand only once. Peptide text beside a SMILES is read from it.

What was measured:
[1] = Inhibitory concentration against Nicotinic acetylcholine receptor alpha2-beta4 expressed in xenopus oocytes; type: cell-based; conditions: oocyte
[2] = molecular target: T1, Neuronal acetylcholine receptor; alpha3/beta2 (Homo sapiens, UniProt P17787+P32297); assay: Inhibitory concentration against Nicotinic acetylcholine receptor alpha3-beta2 expressed in xenopus oocytes; type: cell-based, Oocyte
T1 sequence (P17787 whole entry): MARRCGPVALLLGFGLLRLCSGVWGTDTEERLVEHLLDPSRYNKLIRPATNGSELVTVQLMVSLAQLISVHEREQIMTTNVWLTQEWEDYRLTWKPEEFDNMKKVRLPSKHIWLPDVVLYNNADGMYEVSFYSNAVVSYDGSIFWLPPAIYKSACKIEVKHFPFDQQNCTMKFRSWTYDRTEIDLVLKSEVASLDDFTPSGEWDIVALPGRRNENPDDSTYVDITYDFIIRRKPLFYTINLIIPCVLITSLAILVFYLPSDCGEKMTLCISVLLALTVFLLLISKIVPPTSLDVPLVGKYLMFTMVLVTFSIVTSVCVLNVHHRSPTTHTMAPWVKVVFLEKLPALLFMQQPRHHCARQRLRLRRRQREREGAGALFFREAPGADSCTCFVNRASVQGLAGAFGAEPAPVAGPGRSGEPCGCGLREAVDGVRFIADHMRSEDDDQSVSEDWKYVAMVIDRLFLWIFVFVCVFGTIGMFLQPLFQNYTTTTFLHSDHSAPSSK
T1 sequence (P32297 whole entry): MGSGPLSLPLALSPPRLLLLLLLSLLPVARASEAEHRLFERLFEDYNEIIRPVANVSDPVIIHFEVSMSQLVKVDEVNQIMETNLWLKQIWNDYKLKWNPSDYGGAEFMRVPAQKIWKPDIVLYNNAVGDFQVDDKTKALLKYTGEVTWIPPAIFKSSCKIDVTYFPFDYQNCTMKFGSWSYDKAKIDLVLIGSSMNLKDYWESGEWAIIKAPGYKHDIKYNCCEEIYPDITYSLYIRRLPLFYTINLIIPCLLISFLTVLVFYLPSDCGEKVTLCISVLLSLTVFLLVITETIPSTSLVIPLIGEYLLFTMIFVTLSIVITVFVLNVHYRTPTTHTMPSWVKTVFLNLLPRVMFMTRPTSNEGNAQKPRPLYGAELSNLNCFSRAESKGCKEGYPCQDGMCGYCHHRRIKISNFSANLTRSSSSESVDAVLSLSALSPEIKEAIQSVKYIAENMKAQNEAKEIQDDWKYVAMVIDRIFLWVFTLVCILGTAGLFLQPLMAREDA

[3] = Inhibitory concentration against Nicotinic acetylcholine receptor alpha3-beta4 expressed in xenopus oocytes; type: cell-based; conditions: oocyte
[4] = molecular target: T2, Neuronal acetylcholine receptor; alpha2/beta4 (Homo sapiens, UniProt P30926+Q15822); assay: Inhibitory concentration against Nicotinic acetylcholine receptor alpha2-beta4; type: protein-complex assay
T2 sequence (P30926 whole entry): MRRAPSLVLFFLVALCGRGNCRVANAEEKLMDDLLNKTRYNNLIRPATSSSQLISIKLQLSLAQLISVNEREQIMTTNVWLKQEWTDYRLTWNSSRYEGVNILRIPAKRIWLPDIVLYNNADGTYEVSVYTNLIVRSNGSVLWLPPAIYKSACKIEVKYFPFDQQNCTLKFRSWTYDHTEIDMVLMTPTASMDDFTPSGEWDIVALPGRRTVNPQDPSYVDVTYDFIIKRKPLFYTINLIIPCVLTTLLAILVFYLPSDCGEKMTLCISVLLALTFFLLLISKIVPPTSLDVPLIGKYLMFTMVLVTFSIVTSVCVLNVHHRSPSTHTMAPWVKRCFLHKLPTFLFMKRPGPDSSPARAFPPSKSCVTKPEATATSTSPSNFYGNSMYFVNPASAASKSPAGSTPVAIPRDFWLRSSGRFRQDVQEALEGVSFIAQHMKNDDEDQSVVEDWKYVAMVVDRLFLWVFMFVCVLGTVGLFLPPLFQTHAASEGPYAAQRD
T2 sequence (Q15822 whole entry): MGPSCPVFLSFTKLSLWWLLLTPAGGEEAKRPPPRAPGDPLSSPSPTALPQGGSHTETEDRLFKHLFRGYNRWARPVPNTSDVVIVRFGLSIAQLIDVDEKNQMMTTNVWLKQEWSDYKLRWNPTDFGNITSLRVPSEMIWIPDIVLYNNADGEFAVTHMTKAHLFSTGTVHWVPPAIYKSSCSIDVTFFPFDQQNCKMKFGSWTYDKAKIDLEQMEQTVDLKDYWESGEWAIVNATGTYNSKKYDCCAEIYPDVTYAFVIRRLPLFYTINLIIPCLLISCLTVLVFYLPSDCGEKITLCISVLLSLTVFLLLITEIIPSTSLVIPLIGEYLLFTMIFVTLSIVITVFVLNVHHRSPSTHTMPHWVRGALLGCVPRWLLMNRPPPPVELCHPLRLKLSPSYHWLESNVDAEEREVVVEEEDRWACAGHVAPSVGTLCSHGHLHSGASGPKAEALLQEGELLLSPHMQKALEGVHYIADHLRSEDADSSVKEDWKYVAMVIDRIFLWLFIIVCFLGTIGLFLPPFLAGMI

[5] = molecular target: T1, Neuronal acetylcholine receptor; alpha3/beta2; assay: Inhibitory concentration against Nicotinic acetylcholine receptor alpha3-beta2; type: protein-complex assay
[6] = molecular target: T3, Neuronal acetylcholine receptor; alpha3/beta4 (Homo sapiens, UniProt P30926+P32297); assay: Inhibitory concentration against Nicotinic acetylcholine receptor alpha3-beta4; type: protein-complex assay
T3 sequence (P30926 whole entry): as the sequence (P30926 whole entry) above
T3 sequence (P32297 whole entry): as the sequence (P32297 whole entry) above

[7] = molecular target: T4, Neuronal acetylcholine receptor subunit alpha-7 (Homo sapiens, UniProt P36544); assay: Inhibitory concentration against Nicotinic acetylcholine receptor alpha-7 expressed in xenopus oocytes; type: cell-based; conditions: xenopus oocyte
T4 sequence (P36544 whole entry): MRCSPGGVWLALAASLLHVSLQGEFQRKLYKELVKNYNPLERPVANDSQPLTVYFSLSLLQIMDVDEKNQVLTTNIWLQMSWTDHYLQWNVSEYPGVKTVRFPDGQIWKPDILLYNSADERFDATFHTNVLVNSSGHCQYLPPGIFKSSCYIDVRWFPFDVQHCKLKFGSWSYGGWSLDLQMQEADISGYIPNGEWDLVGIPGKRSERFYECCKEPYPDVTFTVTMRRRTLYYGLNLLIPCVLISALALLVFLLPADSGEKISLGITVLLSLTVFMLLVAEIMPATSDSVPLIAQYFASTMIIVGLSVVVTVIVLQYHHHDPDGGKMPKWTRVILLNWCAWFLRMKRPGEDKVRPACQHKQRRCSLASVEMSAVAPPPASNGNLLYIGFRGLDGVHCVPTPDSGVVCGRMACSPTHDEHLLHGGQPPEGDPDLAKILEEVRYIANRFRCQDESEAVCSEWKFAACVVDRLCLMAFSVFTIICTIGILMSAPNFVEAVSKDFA

[8] = molecular target: T5, Neuronal acetylcholine receptor; alpha4/beta2 (Homo sapiens, UniProt P17787+P43681); assay: Ki or IC50 concentration against Nicotinic acetylcholine receptor alpha4-beta2 expressed in xenopus oocytes; type: cell-based; conditions: Oocyte
T5 sequence (P17787 whole entry): as the sequence (P17787 whole entry) above
T5 sequence (P43681 whole entry): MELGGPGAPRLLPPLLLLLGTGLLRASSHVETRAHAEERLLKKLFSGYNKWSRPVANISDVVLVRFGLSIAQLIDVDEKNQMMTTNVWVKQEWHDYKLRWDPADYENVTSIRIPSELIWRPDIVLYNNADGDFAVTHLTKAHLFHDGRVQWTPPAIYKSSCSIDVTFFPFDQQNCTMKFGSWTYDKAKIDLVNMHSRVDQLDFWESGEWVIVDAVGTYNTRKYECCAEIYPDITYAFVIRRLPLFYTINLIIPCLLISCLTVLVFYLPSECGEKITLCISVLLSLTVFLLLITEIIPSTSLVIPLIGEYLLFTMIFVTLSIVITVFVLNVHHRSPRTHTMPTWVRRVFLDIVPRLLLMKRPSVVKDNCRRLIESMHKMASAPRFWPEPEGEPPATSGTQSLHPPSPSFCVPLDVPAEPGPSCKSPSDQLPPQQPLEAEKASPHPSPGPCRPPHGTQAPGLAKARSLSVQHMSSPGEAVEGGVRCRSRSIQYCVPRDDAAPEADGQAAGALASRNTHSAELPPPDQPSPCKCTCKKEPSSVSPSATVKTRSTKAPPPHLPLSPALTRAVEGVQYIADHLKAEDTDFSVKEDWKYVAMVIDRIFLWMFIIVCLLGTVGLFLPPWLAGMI

[9] = molecular target: T6, Neuronal acetylcholine receptor; alpha4/beta4 (Homo sapiens, UniProt P30926+P43681); assay: Ki or IC50 concentration against Nicotinic acetylcholine receptor alpha4-beta4 expressed in xenopus oocytes; type: cell-based; conditions: Oocyte
T6 sequence (P30926 whole entry): as the sequence (P30926 whole entry) above
T6 sequence (P43681 whole entry): as the sequence (P43681 whole entry) above

[10] = molecular target: T4, Neuronal acetylcholine receptor subunit alpha-7; assay: Inhibitory concentration against Nicotinic acetylcholine receptor alpha 7
[11] = molecular target: T5, Neuronal acetylcholine receptor; alpha4/beta2; assay: (§1) Inhibitory concentration against Nicotinic acetylcholine receptor alpha4-beta2; type: protein-complex assay
[12] = Inhibitory concentration against Nicotinic acetylcholine receptor alpha-6-alpha-4-beta-4; Range is 0.7-1 nM
[13] = Inhibitory concentration against Nicotinic acetylcholine receptor alpha-6-alpha-3-beta-2; Range is 0.5-8 nM; set-up: species or system Homo sapiens
[14] = molecular target: T1, Neuronal acetylcholine receptor; alpha3/beta2; assay: Inhibitory concentration against Nicotinic acetylcholine receptor alpha3-beta2; Range is 0.5-8 nM; type: protein-complex assay
[15] = molecular target: T4, Neuronal acetylcholine receptor subunit alpha-7; assay: Inhibitory concentration against Nicotinic acetylcholine receptor alpha7; Range is 0.5-8 nM
[16] = molecular target: T5, Neuronal acetylcholine receptor; alpha4/beta2; assay: Inhibitory concentration against Nicotinic acetylcholine receptor alpha4-beta2; Range is 0.5-8 nM; type: protein-complex assay
[17] = molecular target: Neuronal acetylcholine receptor subunit alpha-3 (Homo sapiens) (UniProt P32297); assay: Maximal response against [Ca2+] permeability and [Ca2+] modulation of alpha-3 nicotinic receptor
Sequence of Neuronal acetylcholine receptor subunit alpha-3 (Homo sapiens) (P32297 whole entry): as the sequence (P32297 whole entry) above

[18] = molecular target: T4, Neuronal acetylcholine receptor subunit alpha-7; assay: (§2) Maximal response against Nicotinic acetylcholine receptor alpha 7
[19] = molecular target: T1, Neuronal acetylcholine receptor; alpha3/beta2; assay: Maximal response against Nicotinic acetylcholine receptor alpha3-beta2 expressed in HEK293 cells; type: cell-based
[20] = molecular target: T3, Neuronal acetylcholine receptor; alpha3/beta4; assay: Maximal response against Nicotinic acetylcholine receptor alpha3-beta4 expressed in HEK293 cells; type: cell-based
[21] = molecular target: T5, Neuronal acetylcholine receptor; alpha4/beta2; assay: Maximal response against Nicotinic acetylcholine receptor alpha4-beta2 expressed in HEK293 cells; type: cell-based
[22] = Effective concentration against Nicotinic acetylcholine receptor alpha4-beta2 expressed in xenopus oocytes; type: cell-based; conditions: oocyte
[23] = Effective concentration against Nicotinic acetylcholine receptor alpha2-beta4 expressed in xenopus oocytes; type: cell-based; conditions: oocyte
[24] = Effective concentration against Nicotinic acetylcholine receptor alpha3-beta4 expressed in xenopus oocytes; type: cell-based; conditions: oocyte
[25] = Effective concentration against Nicotinic acetylcholine receptor alpha4-beta4 expressed in xenopus oocytes; type: cell-based; conditions: oocyte
[26] = molecular target: T2, Neuronal acetylcholine receptor; alpha2/beta4; assay: Maximal response against Nicotinic acetylcholine receptor alpha2-beta4; type: protein-complex assay
[27] = molecular target: T1, Neuronal acetylcholine receptor; alpha3/beta2; assay: Maximal response against Nicotinic acetylcholine receptor alpha3-beta2; type: protein-complex assay
[28] = molecular target: T3, Neuronal acetylcholine receptor; alpha3/beta4; assay: Maximal response against Nicotinic acetylcholine receptor alpha3-beta4; type: protein-complex assay
[29] = molecular target: T5, Neuronal acetylcholine receptor; alpha4/beta2; assay: Maximal response against Nicotinic acetylcholine receptor alpha4-beta2; type: protein-complex assay
[30] = molecular target: T6, Neuronal acetylcholine receptor; alpha4/beta4; assay: Maximal response against Nicotinic acetylcholine receptor alpha4-beta4; type: protein-complex assay
[31] = molecular target: Neuronal acetylcholine receptor subunit alpha-7 (Rattus norvegicus) (UniProt Q05941); assay: as §2
Sequence of Neuronal acetylcholine receptor subunit alpha-7 (Rattus norvegicus) (Q05941 whole entry): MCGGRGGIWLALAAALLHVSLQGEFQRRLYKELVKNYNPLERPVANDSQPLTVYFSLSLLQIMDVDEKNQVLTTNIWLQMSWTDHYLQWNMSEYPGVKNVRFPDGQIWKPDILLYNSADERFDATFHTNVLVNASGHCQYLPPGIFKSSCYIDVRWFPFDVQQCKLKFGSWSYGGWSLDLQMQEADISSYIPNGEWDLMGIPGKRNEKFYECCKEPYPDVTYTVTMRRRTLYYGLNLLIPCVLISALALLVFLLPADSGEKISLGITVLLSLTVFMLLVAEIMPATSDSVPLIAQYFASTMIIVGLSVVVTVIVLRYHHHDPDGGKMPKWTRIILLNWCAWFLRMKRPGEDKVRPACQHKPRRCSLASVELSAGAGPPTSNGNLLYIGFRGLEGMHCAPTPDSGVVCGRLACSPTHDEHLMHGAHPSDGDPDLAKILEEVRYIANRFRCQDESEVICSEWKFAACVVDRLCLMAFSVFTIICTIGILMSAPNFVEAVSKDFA

[32] = molecular target: T3, Neuronal acetylcholine receptor; alpha3/beta4; assay: Maximal response against Nicotinic acetylcholine receptor alpha3-beta4 in [Ca2+] permeability and [Ca2+] modulation; type: protein-complex assay
[33] = molecular target: T4, Neuronal acetylcholine receptor subunit alpha-7; assay: Effective concentration against Nicotinic acetylcholine receptor alpha 7 expressed in xenopus oocytes; type: cell-based, Xenopus laevis, Oocyte
[34] = molecular target: T1, Neuronal acetylcholine receptor; alpha3/beta2; assay: Maximal response against Nicotinic acetylcholine receptor alpha3-beta2 in [Ca2+] permeability and [Ca2+] modulation; type: functional
[35] = molecular target: T1, Neuronal acetylcholine receptor; alpha3/beta2; assay: Effective concentration against Nicotinic acetylcholine receptor alpha3-beta2 expressed in xenopus oocytes; type: cell-based, Oocyte
[36] = molecular target: T7, Neuronal acetylcholine receptor; alpha2/beta2 (Homo sapiens, UniProt P17787+Q15822); assay: Inhibitory concentration against Nicotinic acetylcholine receptor alpha2-beta2; type: protein-complex assay
T7 sequence (P17787 whole entry): as the sequence (P17787 whole entry) above
T7 sequence (Q15822 whole entry): as the sequence (Q15822 whole entry) above

[37] = molecular target: T5, Neuronal acetylcholine receptor; alpha4/beta2; assay: as §1; type: protein-complex assay; remark: listed apart in the source
[38] = molecular target: T7, Neuronal acetylcholine receptor; alpha2/beta2; assay: Inhibitory concentration against Nicotinic acetylcholine receptor alpha2-beta2; Range is 0.3-1.5 nM; type: protein-complex assay
[39] = molecular target: T1, Neuronal acetylcholine receptor; alpha3/beta2; assay: Inhibitory concentration against Nicotinic acetylcholine receptor alpha3-beta2; Range is 0.3-1.5 nM; type: protein-complex assay
[40] = molecular target: T2, Neuronal acetylcholine receptor; alpha2/beta4; assay: Inhibitory concentration against Nicotinic acetylcholine receptor alpha2-beta4; Range is 0.3-1.5 nM; type: protein-complex assay
[41] = molecular target: T5, Neuronal acetylcholine receptor; alpha4/beta2; assay: Inhibitory concentration against Nicotinic acetylcholine receptor alpha4-beta2; Range is 0.3-1.5 nM; type: protein-complex assay
[42] = molecular target: T6, Neuronal acetylcholine receptor; alpha4/beta4; assay: Inhibitory concentration against Nicotinic acetylcholine receptor alpha4-beta4; Range is 0.3-1.5 nM; type: protein-complex assay
[43] = molecular target: T4, Neuronal acetylcholine receptor subunit alpha-7; assay: Inhibitory concentration against Nicotinic acetylcholine receptor alpha7; Range is 0.3-1.5 nM

Question: What does the source list for `COc1cc2c3cc1Oc1cccc(c1O)C[C@@H]1c4c(cc(OC)c(O)c4Oc4ccc(cc4)CC3N(C)CC2)CC[N+]1(C)C` (some centres undefined)?
Answer: IC50 [1]: 4200 nM; IC50 [2]: 2400 nM; IC50 [3]: 2200 nM; IC50 [4]: 2300 nM and 4000 nM; IC50 [5]: 230 nM; IC50 [6]: 4100 nM and 730 nM; Concentration [7]: 3.1 µM; Concentration [8]: 3.2 µM; Concentration [9]: 0.21 µM; IC50 [10]: 14700 nM; Concentration [11]: 7.6 µM

Question: For `CC(C)C[C@H](NC(=O)[C@H](CC(N)=O)NC(=O)[C@H](CO)NC(=O)[C@H](Cc1c[nH]cn1)NC(=O)[C@H](CCC(=O)O)NC(=O)[C@H](CC(C)C)NC(=O)[C@H](Cc1c[nH]cn1)NC(=O)[C@H](CS)NC(=O)[C@@H](NC(=O)[C@@H]1CCCN1C(=O)[C@H](CC(N)=O)NC(=O)[C@H](CO)NC(=O)[C@H](CS)NC(=O)[C@H](CS)NC(=O)CN)C(C)C)C(=O)N[C@@H](CS)C(N)=O`, which IC50 [12] is on record?
Answer: Its IC50 is 8 nM.

Question: And the IC50 [13]?
Answer: The IC50 was 8 nM.

Question: And the IC50 [14]?
Answer: Its IC50 is 8 nM.

Question: And the IC50 [15]?
Answer: The IC50 was 8 nM.

Question: What about the IC50 [16] of the same compound?
Answer: The IC50 was 8 nM.

Question: What does the source list for `CC(=O)OCC[N+](C)(C)C` [ACETYLCHOLINE]?
Answer: Rmax [17]: 100%; Rmax [18]: 97%; Rmax [19]: 150%; Rmax [20]: 100%; Rmax [21]: 172%; EC50 [22]: 68000 nM; EC50 [23]: 83000 nM; EC50 [24]: 203000 nM; EC50 [25]: 20000 nM

Question: Which Rmax [26] does the source give for `C[N+]1(C)CCN(c2ccccc2)CC1` [DIMETHYLPHENYLPIPERAZINIUM] here?
Answer: Its Rmax is 58%.

Question: And the Rmax [27]?
Answer: Its Rmax is 124%.

Question: And the Rmax [28]?
Answer: Its Rmax is 101%.

Question: And the Rmax [29]?
Answer: Its Rmax is 90%.

Question: What about the Rmax [30] of the same compound?
Answer: Its Rmax is 19%.

Question: What about the Rmax [31] of the same compound?
Answer: The Rmax was 54%.

Question: What about the Rmax [32] of the same compound?
Answer: Its Rmax is 107%.

Question: What about the EC50 [33] of the same compound?
Answer: Its EC50 is 31000 nM.

Question: And the Rmax [34]?
Answer: Its Rmax is 100%.

Question: What about the EC50 [22] of the same compound?
Answer: Its EC50 is 18000 nM.

Question: What about the EC50 [23] of the same compound?
Answer: Its EC50 is 23000 nM.

Question: And the EC50 [35]?
Answer: Its EC50 is 56000 nM.

Question: And the EC50 [24]?
Answer: Its EC50 is 19000 nM.

Question: What about the EC50 [25] of the same compound?
Answer: The EC50 was 46000 nM.

Question: For `CC(C)C[C@H](NC(=O)[C@H](CO)NC(=O)[C@H](CS)NC(=O)[C@H](CS)NC(=O)CN)C(=O)N1CCC[C@H]1C(=O)N1CCC[C@H]1C(=O)N[C@@H](CS)C(=O)N[C@@H](C)C(=O)N[C@@H](C)C(=O)N[C@@H](CC(N)=O)C(=O)N[C@@H](CC(N)=O)C(=O)N1CCC[C@H]1C(=O)N[C@@H](CC(=O)O)C(=O)N[C@@H](Cc1ccc(O)cc1)C(=O)N[C@@H](CS)C(N)=O` (H-GCCSLPPCAANNPDYC-NH2), which IC50 [36] is on record?
Answer: The IC50 was 9.6 nM.

Question: And the IC50 [5]?
Answer: The IC50 was 9.6 nM.

Question: What about the IC50 [37] of the same compound?
Answer: Its IC50 is 9.6 nM.

Question: And the IC50 [10]?
Answer: Its IC50 is 9.6 nM.

Question: With `C[C@H](NC(=O)[C@H](Cc1ccccc1)NC(=O)[C@H](CS)NC(=O)[C@@H]1CCCN1C(=O)[C@@H]1CCCN1C(=O)[C@H](Cc1ccc(O)cc1)NC(=O)[C@H](CO)NC(=O)[C@H](CS)NC(=O)[C@H](CS)NC(=O)CN)C(=O)N[C@H](C(=O)N[C@@H](CC(N)=O)C(=O)N1CCC[C@H]1C(=O)N[C@@H](CC(=O)O)C(=O)N[C@H](C=O)CS)[C@@H](C)O` as the compound, how does the IC50 [38] read?
Answer: Its IC50 is 0.75 nM.

Question: And the IC50 [39]?
Answer: The IC50 was 0.75 nM.

Question: What about the IC50 [40] of the same compound?
Answer: Its IC50 is 0.75 nM.

Question: And the IC50 [41]?
Answer: The IC50 was 0.75 nM.

Question: And the IC50 [42]?
Answer: Its IC50 is 0.75 nM.

Question: And the IC50 [43]?
Answer: Its IC50 is 0.75 nM.
